Values quoted from earlier work as cited in US20140106406A1, “GENE CLUSTER FOR THE PRODUCTION OF GOUGEROTIN, GOUGEROTIN ANALOGUES, AND PRECURSORS THEREOF” (Bayer Cropscience LP, priority 2012, published 2014).

Key:
powdery mildew = settings: against powdery mildew
[1] = system: gram-positive, gram-negative bacteria and tubercule bacillus
[2] = system: parasites on animals, such as pin worm

Row | Structure (SMILES) | antifungal activity (powdery mildew) | antibacterial activity [1] | parasiticidal action [2]
1 | NC(N)=NCC(O)CC(O)(C(=O)O)[C@H]1O[C@@H](n2cc(CO)c(N)nc2=O)C=C[C@@H]1NC(=O)[C@@H](N)CO (stereo partly drawn) [antibiotic B-98891] | antifungal activity |  | 
2 | CNCC(=O)NC(CO)C(=O)NC1C(C(N)=O)OC(n2ccc(N)nc2=O)C(O)C1O (stereo not drawn) [gougerotin] |  | weak antibacterial activity | parasiticidal action
